In US11485700B2, “Synthesis of (+)-cannabinoids and their therapeutic effects” (SYMRISE AG, priority 2018, dated 2022):
Like-named read-outs stand apart in the source and are kept apart here.

Legend:
[1] = tested on: IL-1-treated human dermal fibroblasts; assay: IL-1-induced inflammatory parameters in human dermal fibroblasts; format: cell-based; conditions: IL-1beta 10 U/ml, 24 h; for inhibition of IL-1-induced PGE2 / inhibition of IL-1-stimulated IL-6 release / inhibition of IL-1-stimulated IL-8 release: maximal effect, doses up to 25 μM
Method: (§1) Cell cultures: Human primary monocytes were extracted from the whole blood of medically healthy volunteers, who provided written informed consent at the local blood bank (University Hospital of Freiburg, Germany), following a standardized protocol (gradient preparation, Lymphocytes separation medium, PAN Biotech, P04-60125, Aidenbach, Germany) using completely endotoxin-free cultivation. Using 50 ml tubes, 25 ml Pancoll was loaded with 25 ml of blood (buffy coats). The gradient was established by centrifugation at 1800 rpm, 20° C. for 40 min with slow acceleration and deceleration. Peripheral blood mononuclear cells in the interphase were carefully removed and re-suspended in 50 ml pre-warmed phosphate-buffered saline (PBS) (Pan Biotech, P04-36500), followed by centrifugation for 10 min at 1600 rpm and 20° C. The supernatant was discarded and the pellet washed in 50 ml PBS and centrifuged as described above. The pellet was then re-suspended in 50 ml RPMI-1640 low-endotoxin medium supplemented with 10% human serum (Hexcell, Berlin, Germany, SP2080). After counting the number of cells in a particle counter (Euro Diagnostics, Krefeld, Germany), cells were seeded in 24-well plates for enzyme linked immunosorbent assay (ELISA) (2.2 mio. cells/well) or 96-well plates at a density of 2×10^4 cells/well for cell viability testing, and incubated at 37° C. with 5% CO2. The medium and the non-adherent cells (lymphocytes) were removed and fresh RPMI-1640 medium containing 1% human serum added. Enriched monocytes were then ready to be used for the experiments. Primary human fibroblasts and HaCat keratinocytes were obtained from the Uniklinik Freiburg. All cells were maintained in supplemented DMEM (Invitrogen, Life-Technologies, Darmstadt, Germany) medium containing 10% FBS (Bio&Sell, Feucht, Germany) and 1% antibiotics penicillin/streptomycin (from Invitrogen, DMEM complete medium) at 37° C. in a humidified atmosphere of 5% CO2.
Determination of inflammatory molecules in fibroblasts: Primary human fibroblasts were cultivated as described above and seeded (500000 cells/well) in 24-well plates. Cells were incubated with IL-1beta (Roche, Mannheim, Germany, 10 U/ml) in absence and presence of the cannabinoids (5 doses, n=3) for 24 h. Unstimulated cells served as a negative control. 24 h after cell stimulation, supernatants were removed, centrifuged and investigated for IL-6, PGE2, and IL-8 concentrations by ELISAs according to the manufacturer's protocol (PGE2 from Cayman/Biomol, Hamburg, Germany; IL-6, and IL-8 from Immuno-tools, Frisoythe, Germany). The respective extinction is determined using a 96-well plate reader (Berthold, Offenburg, Germany).

[2] = tested on: LPS-treated human monocytes; assay: LPS-induced inflammatory parameters in human monocytes; format: cell-based; conditions: for inhibition at 25 µM: Homo sapiens, Monocyte, maximal effect at 25 μM
Method: as §1
Measurement of cytokines and PGE2 in primary human monocytes: Cells were incubated with LPS (Sigma-Aldrich, Taufkirchen, Germany, 10 ng/ml) for 24 h. The cannabinoids (5 doses) were added 30 min before LPS treatment. After 24 h, supernatants were removed, centrifuged and investigated for IL-1beta, IL-8, IL-6, TNFalpha, MMP9, isoprostane, and PGE2 concentrations in EIAs (PGE2 and isoprostane, from Cayman/Biomol, Hamburg, Germany) or ELISAs (IL-1beta, Hiss, Freiburg, Germany; TNFalpha, IL-6 and IL-8, ImmunoTools, Frysoithe, Germany, MMP9, Biotechne, Wiesbaden, Germany) using manufacturer's protocol. The respective extinction was determined using a 96-well plate reader (Berthold, Offenburg, Germany). Each dose was analyzed 4 times in two buffy coats from 2 different donors (2 buffy coats used from 2 different healthy blood donors with final n=4 values).

[3] = tested on: PolyIC-treated human keratinocytes (HaCat); assay: Poly I:C-induced proteases in human HaCat keratinocytes; format: cell-based; conditions: Poly I:C 10 μg/ml, 24 h; for inhibition at 25 µM: Homo sapiens, HaCaT; for inhibition of Poly I:C-stimulated TIMP1: maximal effect, doses up to 25 μM
Method: as §1
Determination of MMPs and TIMPs in keratinocytes: Keratinocytes (HaCat) were cultivated as described above. Cells were seeded in 24-well plates incubated with Poly I:C (InvivoGen, San Diego, Calif.; USA, 10 μg/ml) in absence and presence of the cannabinoids (5 doses, n=3) for 24 h. Unstimulated cells served as a negative control. 24 h after cell stimulation, supernatants were removed, centrifuged and investigated for MMP1, MMP9 and TIMP1 concentrations by ELISAs according to the manufacturer's protocol (from Biotechne, Wiesbaden, Germany). The respective extinction was determined using a 96-well plate reader (Berthold, Offenburg, Germany).

CB1 receptor = CB1 receptor (Homo sapiens (Human), UniProt P21554); assay: In vitro binding to CB1 receptor, [3H]-CP55940 radioligand displacement
Method: (§2) Compounds with an expected profile as CB1 and/or CB2 receptor ligands were evaluated by competition studies that allow determining the affinity of these compounds (Ki values) for both receptors against a classical cannabinoid ligand. The competition studies were conducted with membranes transfected with either CB1 or CB2 receptors. For stock solutions the compounds were dissolved at concentrations of 50 and 100 mM and stored at −20° C.
(§3) 96-well plates and the tubes necessary for the experiment were siliconized with Sigmacote (Sigma). Membranes were resuspended in the corresponding buffer and were incubated with the radioligand and each compound for 90 min at 30° C. Non-specific binding was determined with 10 μM WIN55212-2 and 100% binding of the radioligand to the membrane was determined by its incubation with membrane and without any compound. Filtration was performed by a Harvester®filtermate (Perkin-Elmer) with Filtermat A GF/C filters pretreated with polyethylenimine 0.05%. After filtering, the filter was washed nine times with binding buffer, dried and a melt-on scintillation sheet (Meltilex™ A, Perkin Elmer) was melted onto it. Then, radioactivity was quantified by a liquid scintillation spectrophotometer (Wallac MicroBeta Trilux, Perkin-Elmer).
(§4) Radioligand displacement assays were used to evaluate the affinity of the new compounds using membranes from cells (HEK293EBNA) transfected with the CB1 or the CB2 receptors and [^3H]-CP55940 as radioligand. The evaluation of the compounds was conducted in two phases. The first phase consisted in a simple screening with a unique and high concentration of each compound (40 μM). The data was collected from at least three experiments performed in triplicate. […] This consisted of a competition study with [^3H]CP55940 (0.10 nM for CB1 and 0.15 nM for CB2) and different concentrations of the selected compounds (10^−4-10^−11M). The data was analyzed, by using GraphPad Prism® version 5.01 (GraphPad Software Inc., San Diego, Calif., USA), for the calculation of Ki values expressed as mean±SEM of at least three experiments performed in triplicate for each point.

CB2 receptor [4] = target: T1, CB2 receptor (Homo sapiens (Human), UniProt P34972); assay: In vitro binding to CB2 receptor, [3H]-CP55940 radioligand displacement
Method: as §2, §3, §4

primary human monocytes = assay: Cell viability in human monocytes (Alamar Blue); format: cell-based; conditions: 24 h
Method: Cell cultures: Human primary monocytes were extracted from the whole blood of medically healthy volunteers, who provided written informed consent at the local blood bank (University Hospital of Freiburg, Germany), following a standardized protocol (gradient preparation, Lymphocytes separation medium, PAN Biotech, P04-60125, Aidenbach, Germany) using completely endotoxin-free cultivation. Using 50 ml tubes, 25 ml Pancoll was loaded with 25 ml of blood (buffy coats). The gradient was established by centrifugation at 1800 rpm, 20° C. for 40 min with slow acceleration and deceleration. Peripheral blood mononuclear cells in the interphase were carefully removed and re-suspended in 50 ml pre-warmed phosphate-buffered saline (PBS) (Pan Biotech, P04-36500), followed by centrifugation for 10 min at 1600 rpm and 20° C. The supernatant was discarded and the pellet washed in 50 ml PBS and centrifuged as described above. […] Enriched monocytes were then ready to be used for the experiments. […]
Cell viability: Cells were incubated with the cannabinoids (3 doses, n=4) for 24 h. Cytotoxicity was analyzed by Alamar Blue staining (formazan). […] The plate was then incubated at 37° C. for 2 h in a humidified 5% CO2 atmosphere, and the color reaction determined using a 96-well plate reader (Berthold, Offenburg, Germany, excitation 544 nm, emission 590 nm). […]

CB2 receptor [5] = target: T1, CB2 receptor; assay: CB2 antagonistic activity, CRE-Luc assay in HEK 293T-CB2 cells; format: cell-based; conditions: WIN 55,212-2 repression of forskolin-induced CRE-Luc
Method: HEK 293T-CB1 and HEK 293T-CB2 cells (stably transfected with CB1 and CB2 cDNAs) (10^5/ml) were incubated in 24-well plates and transiently transfected with 0.5 μg/ml of the plasmid CRE-Luc that contains six consensus cAMP responsive elements (CRE) linked to firefly luciferase. Transient transfections were performed with Rotifect (Carl Roth GmbH, Karlsruhe, Germany) according to the manufacturer's instructions and harvested 24 h after transfection.
For CB2 antagonistic activity in cells the potential repression of Forskolin-induced CRE-luc inhibition induced by the compounds was analyzed.
After six hours of stimulation the cells were lysed (in 25 mM Tris-phosphate pH 7.8, 8 mM MgCl2, 1 mM DTT, 1% Triton X-100, and 7% glycerol) and luciferase activity was measured using an Autolumat LB 9501 (Berthold Technologies, Bad Wildbad, Germany) following the instructions of the luciferase assay kit (Promega, Madison, Wis.). The background obtained with the lysis buffer was subtracted in each experimental value, and the specific transactivation expressed as fold induction over basal levels (CRE-Luc).
The potential antagonistic activities of the compounds on the CB2 receptor were studied in the following. […] The negative control (untreated cells, 0% activation) is not listed.

[6] = read-out: inhibition of Poly I:C-induced MMP1
[7] = read-out: inhibition of Poly I:C-stimulated MMP9
[8] = LPS 10 ng/ml, 24 h, read-out: inhibition of LPS-stimulated PGE2 release
[9] = LPS 10 ng/ml, 24 h, maximal effect, doses up to 25 μM

Structure (SMILES)	doses inhibiting IL-1-induced PGE2 [1] [µM]	doses inhibiting IL-1-stimulated IL-6 release [1] [µM]	doses inhibiting IL-1-stimulated IL-8 release [1] [µM]	inhibition of IL-1-induced PGE2 [1]	inhibition of IL-1-stimulated IL-6 release [1]	inhibition of IL-1-stimulated IL-8 release [1]	doses inhibiting LPS-induced IL-6 ([2]; LPS 10 ng/ml, 24 h) [µM]	doses inhibiting LPS-induced IL-8 ([2]; LPS 10 ng/ml, 24 h) [µM]	inhibition at 25 µM [3, 6] [%]	inhibition at 25 µM [3, 7] [%]	inhibition of Poly I:C-stimulated TIMP1 [3]	Ki (CB2 receptor [4]) [nM]	doses affecting cell viability (primary human monocytes) [µM]	inhibition at 25 µM [2, 8] [%]	doses inhibiting LPS-stimulated PGE2 release ([2]; LPS 10 ng/ml, 24 h) [µM]	doses inhibiting LPS-stimulated TNFalpha release ([2]; LPS 10 ng/ml, 24 h) [µM]	inhibition of LPS-stimulated TNFalpha release [2, 9]	other results
C=C(C)[C@H]1CCC(C)=C[C@@H]1c1c(O)cc(CCCCC)c(C(=O)OCC(O)CCC)c1O (single isomer, unassigned; (+)) [(+)-CBD-HPE, (+)-Cannabidiol hydroxypentylester]	25	≥ 10	≥ 10	50%	95%	95%	≥ 10	25	20	40	60%	0.8						doses increasing LPS-mediated IL-1beta ([2]; LPS 10 ng/ml, 24 h): 25 µM; doses inhibiting LPS-stimulated MMP9 ([2]; LPS 10 ng/ml, 24 h): 25 µM; Ki (CB1 receptor): 3.1 nM; CB1/CB2 selectivity (CB1 receptor; ratio of CB1-Ki to CB2-Ki): 3.9
C=C(C)[C@H]1CCC(C)=C[C@@H]1c1c(O)cc(CCCCC)cc1O [(+)-CBD, (+)-Cannabidiol]		≥ 0.1	≥ 0.1	more than 80%	more than 90%	more than 90%		25	~40	~40	~70%		≥ 25	~80	≥ 1	≥ 0.1	around 80%	doses inhibiting Poly I:C-induced MMP1 [3]: 25 µM; doses inhibiting Poly I:C-stimulated MMP9 [3]: ≥ 5 µM; doses inhibiting Poly I:C-stimulated TIMP1 [3]: ≥ 5 µM
C=C(C)[C@H]1CCC(C)=C[C@@H]1c1c(O)cc(CCCCC)c(C(=O)OCCO)c1O [(+)-CBD-GE, (+)-Cannabidiol glycolester]	≥ 5	≥ 5	≥ 5	approx. 80%	around 95%	around 95%	≥ 0.1			30 to 50	30-50%	12.9		~80	≥ 0.1	≥ 0.1	approx. 40%	inhibition at 25 µM ([2]; LPS 10 ng/ml, 24 h, read-out: inhibition of LPS-stimulated IL-1 release): ~40%; inhibition at 25 µM ([2]; LPS 10 ng/ml, 24 h, read-out: inhibition of LPS-stimulated isoprostane release): ~40%; doses inhibiting LPS-stimulated IL-1 release ([2]; LPS 10 ng/ml, 24 h): ≥ 0.1 µM; doses inhibiting LPS-stimulated isoprostane release ([2]; LPS 10 ng/ml, 24 h): ≥ 0.1 µM; inhibition of LPS-induced IL-6 [2, 9]: around 80%; enhancement of LPS-mediated MMP9, more than LPS values ([2]; doses of 5-25 μM): 20-60%
C=C(C)[C@H]1CCC(C)=C[C@@H]1c1c(O)cc(CCC)cc1O [(+)-CBDV, (+)-Cannabidivarin]		≥ 5	≥ 5	more than 80%								33.1	≥ 25					doses enhancing Poly I:C-stimulated MMP1 [3]: 25 µM
COc1ccc(C(=O)c2c(C)n(CCN3CCOCC3)c3cc(I)ccc23)cc1 [AM630]																		CB2 antagonistic activity (CB2 receptor [5]): prevented
